Test results from patent US20110159088A1, “ORAL PHARMACEUTICAL FOR BASED ON AT LEAST ONE ACTIVE PRINCIPLE WHOSE SOLUBILITY VARIES AS A FUNCTION OF THE GASTRIC pH CONDITIONS” (Flamel Technologies, S.A., priority 2005, published 2011).
≈ marks a conversion by molar mass, not a printed value.

Test: physchem
Assay type: physicochemical
Details: 37 °C
Experimental: This solubility is measured in an aqueous medium at 37° C., maintained at the pH under consideration. The solubility of Irbesartan varies greatly in the gastric pH range: The solubility of Eprosartan varies greatly in the gastric pH range: The solubility of Acyclovir varies greatly in the gastric pH range: […]

[1] = pH 1.2, simulated gastric fluid

solubility [1] [µg/mL] | solubility (pH 2, simulated gastric fluid) [µg/mL] | solubility (pH 2.5, aqueous buffer) [µg/mL] | solubility (pH 4.5, aqueous buffer) [µg/mL] | solubility (pH 6.8, aqueous buffer) [µg/mL] | solubility (pH 3, aqueous buffer) [µg/mL] | solubility (pH 5.5, aqueous buffer) [µg/mL] | SMILES
10500 (≈ 46600 µM) | 6000 (≈ 26600 µM) | 3300 (≈ 14700 µM) | 2600 (≈ 11500 µM) | 2500 (≈ 11100 µM) | – | – | Nc1nc2c(ncn2COCCO)c(=O)[nH]1 [Acyclovir]
2420 (≈ 5650 µM) | 362 (≈ 845 µM) | – | 20 (≈ 46.7 µM) | 666 (≈ 1550 µM) | 48 (≈ 112 µM) | 65 (≈ 152 µM) | CCCCC1=NC2(CCCC2)C(=O)N1Cc1ccc(-c2ccccc2-c2nnn[nH]2)cc1 [Irbesartan]
795 (≈ 1870 µM) | 142 (≈ 334 µM) | – | 18 (≈ 42.4 µM) | 1190 (≈ 2810 µM) | 33 (≈ 77.7 µM) | 15 (≈ 35.3 µM) | CCCCc1ncc(/C=C(\Cc2cccs2)C(=O)O)n1Cc1ccc(C(=O)O)cc1 [Eprosartan]
